Reference: patent US20230287003A1, “BCL6 INHIBITORS” (Cancer Research Technology Limited, priority 2018, published 2023)

Target: human BCL6 BTB domain (Trx-6×His-BCL6) / BCOR-AF633 peptide (Homo sapiens (Human), UniProt P41182)
Test: HTRF assay
Format: binding
Details: 1 nM Trx-6×His-BCL6, 300 nM BCOR-AF633 peptide, 2 hours incubation

Molecule	HTRF avg pIC50 (1 nM)
C[C@@H]1CN(c2ncc(Cl)c(Nc3ccc4c(c3)c3c(c(=O)n4C)OCC(F)(F)[C@H](C4CC4)N3)n2)CCO1 [Example 12s, (S)-10-((5-chloro-2-((R)-2-methylmorpholino)pyrimidin-4-yl)amino)-2-cyclopropyl-3,3-difluoro-7-methyl-1,2,3,4-tetrahydro-[1,4]oxazepino[2,3-c]quinolin-6(7H)-one]	8.47
C[C@H]1CN(c2ncc(Cl)c(Nc3ccc4c(c3)c3c(c(=O)n4C)OCC(F)(F)[C@H](C4CC4)N3)n2)CCO1 [Example 12t, (S)-10-((5-chloro-2-((S)-2-methylmorpholino)pyrimidin-4-yl)amino)-2-cyclopropyl-3,3-difluoro-7-methyl-1,2,3,4-tetrahydro-[1,4]oxazepino[2,3-c]quinolin-6(7H)-one]	8.46
Cn1c(=O)c2c(c3cc(Nc4nc(N5CCc6ncnc(O)c6C5)ncc4Cl)ccc31)N[C@@H](C1CC1)C(F)(F)CO2 [Example 13a, (S)-10-((5-chloro-2-(4-hydroxy-7,8-dihydropyrido[4,3-d]pyrimidin-6(5H)-yl)pyrimidin-4-yl)amino)-2-cyclopropyl-3,3-difluoro-7-methyl-1,2,3,4-tetrahydro-[1,4]oxazepino[2,3-c]quinolin-6(7H)-one]	8.68
Cn1c(=O)c2c(c3cc(Nc4nc(N5CCN(CCC#N)CC5)ncc4Cl)ccc31)N[C@@H](C1CC1)C(F)(F)CO2 [Example 13f, (S)-3-(4-(5-chloro-4-((2-cyclopropyl-3,3-difluoro-7-methyl-6-oxo-1,2,3,4,6,7-hexahydro-[1,4]oxazepino[2,3-c]quinolin-10-yl)amino)pyrimidin-2-yl)piperazin-1-yl)propanenitrile]	8.66
CN1CC2(C1)CN(c1ncc(Cl)c(Nc3ccc4c(c3)c3c(c(=O)n4C)OCC(F)(F)[C@H](C4CC4)N3)n1)C2 [Example 13g, (S)-10-((5-chloro-2-(6-methyl-2,6-diazaspiro[3.3]heptan-2-yl)pyrimidin-4-yl)amino)-2-cyclopropyl-3,3-difluoro-7-methyl-1,2,3,4-tetrahydro-[1,4]oxazepino[2,3-c]quinolin-6(7H)-one: formic acid (1:2)]	8.50
CN1CC2CC(C1)N2c1ncc(Cl)c(Nc2ccc3c(c2)c2c(c(=O)n3C)OCC(F)(F)[C@H](C3CC3)N2)n1 [Example 13h, (2S)-10-((5-chloro-2-(3-methyl-3,6-diazabicyclo[3.1.1]heptan-6-yl)pyrimidin-4-yl)amino)-2-cyclopropyl-3,3-difluoro-7-methyl-1,2,3,4-tetrahydro-[1,4]oxazepino[2,3-c]quinolin-6(7H)-one: formic acid (1:1)]	8.43
CN1CCN(c2ncc(F)c(Nc3ccc4c(c3)c3c(c(=O)n4C)OCC(F)(F)[C@H](C4CC4)N3)n2)CC1=O [Example 13i, (S)-2-cyclopropyl-3,3-difluoro-10-((5-fluoro-2-(4-methyl-3-oxopiperazin-1-yl)pyrimidin-4-yl)amino)-7-methyl-1,2,3,4-tetrahydro-[1,4]oxazepino[2,3-c]quinolin-6(7H)-one]	8.45
Cn1c(=O)c2c(c3cc(Nc4nc(N5C6CCC5COC6)ncc4F)ccc31)N[C@@H](C1CC1)C(F)(F)CO2 [Example 13j, (S)-10-((2-(3-oxa-8-azabicyclo[3.2.1]octan-8-yl)-5-fluoropyrimidin-4-yl)amino)-2-cyclopropyl-3,3-difluoro-7-methyl-1,2,3,4-tetrahydro-[1,4]oxazepino[2,3-c]quinolin-6(7H)-one]	8.60
(R)-10-((5-chloro-2-((R)-4,4-difluoro-3- hydroxypiperidin-1-yl)pyrimidin-4-yl)amino)-2-cyclopropyl-7- methyl-1,2,3,4-tetrahydro-[1,4]oxazepino[2,3-c]quinolin-6(7H)- one or (R)-10-((5-chloro-2((S)-4,4-difluoro-3-hydroxypiperidin-1- yl)pyrimidin-4-yl)amino)-2-cyclopropyl-7-methyl-1,2,3,4- tetrahydro-[1,4]oxazepino[2,3-c]quinolin-6(7H)-one [Example 12y]	7.73
(S)-10-((5-chloro-2-((1S,5R)-3-methyl-2-oxo-3,8- diazabicyclo[3.2.1]octan-8-yl)pyrimidin-4-yl)amino)-2-cyclopropyl- 3,3-difluoro-7-methyl-1,2,3,4-tetrahydro-[1,4]oxazepino[2,3-c]quinolin- 6(7H)-one and (S)-10-((5-chloro-2-((1R,5S)-3-methyl-2-oxo-3,8- diazabicyclo[3.2.1]octan-8-yl)pyrimidin-4-yl)amino)-2-cyclopropyl- 3,3-difluoro-7-methyl-1,2,3,4-tetrahydro- [1,4]oxazepino[2,3-c]quinolin-6(7H)-one [Example 13b]	8.59
(S)-10-((5-chloro-2-((3R,5S)-3-hydroxy-5- methylpiperidin-1-yl)pyrimidin-4-yl)amino)-2,7-dimethyl-1,2,3,4- tetrahydro-[1,4]oxazepino[2,3-c]quinolin-6(7H)-one or (S)-10-((5- chloro-2-((3S,5R)-3-hydroxy-5-methylpiperidin-1-yl)pyrimidin-4- yl)amino)-2,7-dimethyl-1,2,3,4-tetrahydro- [1,4]oxazepino[2,3-c]quinolin-6(7H)-one [Example 12k]	7.04
(S)-10-((5-chloro-2-((3S,5R)-3-hydroxy-5- methylpiperidin-1-yl)pyrimidin-4-yl)amino)-2,7-dimethyl-1,2,3,4- tetrahydro-[1,4]oxazepino[2,3-c]quinolin-6(7H)-one or (S)-10-((5- chloro-2-((3R,5S)-3-hydroxy-5-methylpiperidin-1-yl)pyrimidin-4- yl)amino)-2,7-dimethyl-1,2,3,4-tetrahydro- [1,4]oxazepino[2,3-c]quinolin-6(7H)-one [Example 12l]	6.99
(S)-10-((5-chloro-2-((R)-4,4-difluoro-3- (hydroxymethyl)piperidin-1-yl)pyrimidin-4-yl)amino)-2-cyclopropyl- 3,3-difluoro-7-methyl-1,2,3,4-tetrahydro-[1,4]oxazepino[2,3-c]quinolin- 6(7H)-one or (S)-10-((5-chloro-2-((S)-4,4-difluoro-3- (hydroxymethyl)piperidin-1-yl)pyrimidin-4-yl)amino)-2-cyclopropyl- 3,3-difluoro-7-methyl-1,2,3,4-tetrahydro-[1,4]oxazepino[2,3-c]quinolin- 6(7H)-one [Example 12p]	8.34
(S)-10-((5-chloro-2-((S)-4,4-difluoro-3- (hydroxymethyl)piperidin-1-yl)pyrimidin-4-yl)amino)-2-cyclopropyl- 3,3-difluoro-7-methyl-1,2,3,4-tetrahydro-[1,4]oxazepino[2,3-c]quinolin- 6(7H)-one or (S)-10-((5-chloro-2-((R)-4,4-difluoro-3- (hydroxymethyl)piperidin-1-yl)pyrimidin-4-yl)amino)-2-cyclopropyl- 3,3-difluoro-7-methyl-1,2,3,4-tetrahydro-[1,4]oxazepino[2,3-c]quinolin- 6(7H)-one [Example 12q]	8.65

Results, then the molecule that gave them:

HTRF avg pIC50 (1 nM)	Molecule
7.17	C[C@@H]1CN(c2ncc(Cl)c(Nc3ccc4c(c3)c3c(c(=O)n4CCO)OCC[C@H](C4CC4)N3)n2)C[C@H](C)C1(F)F [Example 16a, (R)-10-((5-chloro-2-((3S,5R)-4,4-difluoro-3,5-dimethylpiperidin-1-yl)pyrimidin-4-yl)amino)-2-cyclopropyl-7-(2-hydroxyethyl)-1,2,3,4-tetrahydro-[1,4]oxazepino[2,3-c]quinolin-6(7H)-one]
7.15	CNCCn1c(=O)c2c(c3cc(Nc4nc(N5C[C@@H](C)C(F)(F)[C@@H](C)C5)ncc4Cl)ccc31)N[C@@H](C1CC1)CCO2 [Example 17a, (R)-10-((5-chloro-2-((3S,5R)-4,4-difluoro-3,5-dimethylpiperidin-1-yl)pyrimidin-4-yl)amino)-2-cyclopropyl-7-(2-(methylamino)ethyl)-1,2,3,4-tetrahydro-[1,4]oxazepino[2,3-c]quinolin-6(7H)-one]
6.58	CC1CNC(=O)c2c(c3cc(Nc4ccnc(Cl)c4C#N)ccc3n(C)c2=O)N1 (centres unmarked) [Example 18a, 2-chloro-4-((2,7-dimethyl-5,6-dioxo-2,3,4,5,6,7-hexahydro-1H-[1,4]diazepino[6,5-c]quinolin-10-yl)amino)nicotinonitrile]
7.51	(R)-10-((5-chloro-2-((R)-4,4-difluoro-3- (hydroxymethyl)piperidin-1-yl)pyrimidin-4-yl)amino)-2- cyclopropyl-7-methyl-1,2,3,4-tetrahydro- [1,4]oxazepino[2,3-c]quinolin-6(7H)-one or (R)-10-((5-chloro- 2-((S)-4,4-difluoro-3-(hydroxymethyl)piperidin-1-yl)pyrimidin- 4-yl)amino)-2-cyclopropyl-7-methyl-1,2,3,4-tetrahydro- [1,4]oxazepino[2,3-c]quinolin-6(7H)-one [Example 15b]
6.98	(R)-10-((5-chloro-2-((R)-4,4-difluoro-3- methylpiperidin-1-yl)pyrimidin-4-yl)amino)-2-cyclopropyl-7- methyl-1,2,3,4-tetrahydro-[1,4]oxazepino[2,3-c]quinolin- 6(7H)-one or (R)-10-((5-chloro-2-((S)-4,4-difluoro-3- methylpiperidin-1-yl)pyrimidin-4-yl)amino)-2-cyclopropyl- 7-methyl-1,2,3,4-tetrahydro-[1,4]oxazepino[2,3-c]quinolin- 6(7H)-one [Example 14b]
7.55	(R)-10-((5-chloro-2-((S)-4,4-difluoro-3- (hydroxymethyl)piperidin-1-yl)pyrimidin-4-yl)amino)-2- cyclopropyl-7-methyl-1,2,3,4-tetrahydro- [1,4]oxazepino[2,3-c]quinolin-6(7H)-one or (R)-10-((5-chloro- 2-((R)-4,4-difluoro-3-(hydroxymethyl)piperidin-1-yl)pyrimidin- 4-yl)amino)-2-cyclopropyl-7-methyl-1,2,3,4-tetrahydro- [1,4]oxazepino[2,3-c]quinolin-6(7H)-one [Example 15c]
